Here are results for eight molecules from US5059692A, “Novel compounds exhibiting a vasodilating activity and inhibitory activity for platelet aggregation” (priority 1989, dated 1991).

By EC50 is commonly meant the concentration that produces a half-maximal response. Higher therefore signals a less potent agent. By IC50 is commonly meant the midpoint of a concentration-inhibition curve. Low readings indicate greater potency in that assay, high ones weaker potency in that assay.

The test system of one test is rabbit mesenteric artery. The test can be described thus: Vasorelaxant Effect (V.R., ED50), KCl-precontracted mesenteric artery strips. The following applies: Oryctolagus cuniculus; rabbit superior mesenteric artery helical strips, precontracted with 20 mM KCl, 37°±0.5° C., cumulative addition. Here is the method:
Vasorelaxant Effect (V.R., ED50)
Male albino rabbits were killed by exanguination.
The vascular strips were vertically suspended in an organ bath filled with a Krebs-Henseleit solution the temperature of which was maintained at 37°±0.5° C. A mixture of 95% O2 -5% CO2 was constantly bubbled through the bicarbonate-based solution in the organ bath. Mechanical responses of the rabbit mesenteric artery evoked by a high concentration of KCl were measured isometrically using the force-displacement transducer.
After obtaining a reproducible response to KCl, the preparations were precontracted with 20 mM KCl and then relaxed by the cumulative addition of the compounds. The ED50 value was read from a plot of the percentage of the relaxing response (maximum contractile response to KCl was taken as 100%) vs. the log concentration of the compounds.

The next test deals with washed platelets. The test can be described thus: Inhibition of Platelets Aggregation (P.A.IC50), collagen-induced, washed platelets, turbidmetric method. It is filed as cell-based. The following applies: Platelet, human washed platelets, 37° C., 2 min preincubation. On the procedure:
Inhibition of Platelets Aggregation (P.A.IC50)
Preparation of washed platelets (centrifugation method) Blood drawn from healthy human volunteers was anticoagulated with 1/10 volume of 0.38% sodium citrate. Platelets-rich plasma (PRP) was obtained by centrifugation of whole blood at 700× G for 10 minutes. The resulting PRP was then centrifuged at 1500× G for 10 minutes in the presence of 1/6 volume of ACD solution (2.2% of sodium citrate, 0.8% of citric acid and 2.2% of glucose), and the pellet was suspended with the modified HEPES-Tyrode solution (135 mM NaCl, 2.7 mM KCl, 1 mM MgCl2, 0.1% glucose, and 20 mM HEPES; pH 7.4).
After the platelet suspension was centrifuged again at 1500× G for 5 minutes with 1/6 volume of the ACD solution, the pellet was resuspended with the modified HEPES-Tyrode solution. Then the washed platelet suspension (=300,000 platelets/μl) was obtained.
Measurement of Platelet Aggregation (Turbidmetric Method)
Platelet aggregation was studied by the turbidmetric method with an 4 ch. aggregometer (HEMA tracer 601; Nikoh Bioscience Co., Japan). Test sample (3 μl, appropriate concentration) or vehicle (3 μl) was added to 270 μl of the platelet suspension and incubated at 37° C. with stirring for 2 minutes before the addition of 30 μl collagen ([…]).
Estimation of Inhibitory Action
The extent of aggregation was expressed by the maximum change of light transmission expressed as a percentage, taking the difference between light transmission for the platelet suspension and platelet-poor-plasma as a value of 100%. Percent inhibition of aggregation by a test compound was calculated by dividing the percent aggregation by that observed in the control run, then multiplying by 100. IC50 values were expressed as the concentrations of test compounds which produced 50% inhibition of the platelet aggregation.

In the case of `COC(=O)c1sc2c(c1N=CN(C)C)c1ccccc1c(=O)n2-c1ccccc1` [compound 7, Methyl 1-dimethylaminomethyleneamino-4,5-dihydro-5-oxo-4-phenyl-thieno[2,3-c]isoquinoline-2-carboxylate], the EC50 in the test on rabbit mesenteric artery is 74 µM. In addition, the IC50 in the test on washed platelets came out at 100 µM. Consider `COC(=O)c1sc2c(c1N=CN(C)C)c1ccccc1c(=O)n2-c1ccccc1C` [compound 8, Methyl 1-dimethylaminomethyleneamino-4,5-dihydro-4-(2-methylphenyl)-5-oxo-thieno[2,3-c]isoquinoline-2-carboxylate], for which the EC50 with rabbit mesenteric artery is 1.6 µM.

In turn, `COC(=O)c1sc2c(c1N)-c1ccccc1CN2c1ccccc1` [compound 10, Methyl 1-amino-4,5-dihydro-4-phenyl-thieno[2,3-c]isoquinoline-2-carboxylate] displayed an EC50 in the test with rabbit mesenteric artery of 8 µM. In the test with washed platelets, this molecule gave an IC50 of 0.31 µM. On to `COC(=O)c1sc2c(c1N)c1ccsc1c(=O)n2-c1ccccc1` [compound 3, Methyl 1-amino-4,5-dihydro-5-oxo-4-phenyl-dithieno[2,3-b:3',2'-d]pyridine-2-carboxylate], for which the half-inhibitory concentration (IC50) in the test with washed platelets stood at 0.26 µM.

As for `COC(=O)c1sc2c(c1N)c1ccccc1c(=O)n2-c1ccccc1` [compound 1, Methyl 1-amino-4,5-dihydro-5-oxo-4-phenyl-thieno[2,3-c]isoquinoline-2-carboxylate], it took 20 µM to reach a half-maximal effect with rabbit mesenteric artery (EC50). This molecule registered an IC50 in the test with washed platelets of 0.023 µM.

`COC(=O)c1sc2c(c1N)c1ccccc1c(=O)n2-c1ccccc1C` [compound 2, Methyl 1-amino-4,5-dihydro-4-(2-methylphenyl)-5-oxo-thieno[2,3-c]isoquinoline-2-carboxylate] yielded an EC50 with rabbit mesenteric artery of 4.6 µM. The midpoint of inhibition in the test on washed platelets, the IC50, lay at 0.56 µM. `COC(=O)c1sc2c(c1N)c1ccccc1c(=O)n2-c1ccccc1Cl` [compound 4, Methyl 1-amino-4-(2-chlorophenyl)-4,5-dihydro-5-oxo-thieno[2,3-c]isoquinoline-2-carboxylate] registered an EC50 in the test on rabbit mesenteric artery of 5.7 µM. 0.1 µM corresponded to half-maximal inhibition with washed platelets (IC50). Turning to `COC(=O)c1sc2c(c1N=C1CCCN1C)c1ccccc1c(=O)n2-c1ccccc1C` [compound 9, Methyl 4,5-dihydro-4-(2-methylphenyl)-1-(1-methyl-2-pyrrolidinylideneamino)-5-oxo-thieno[2,3-c]isoquinoline-2-carboxylate], a half-maximal effect in the test on rabbit mesenteric artery (EC50) was put at 1.1 µM. This molecule also returned a concentration for half-maximal inhibition (IC50) in the test with washed platelets of 100 µM.
